Organism: Rattus norvegicus
Assay: DrugMatrix - Regimen: Daily Repeat
Type: toxicity, organism-based, Sprague-Dawley
Set-up: regimen Daily Repeat, gender Male, age 6-8 weeks
Conditions: in vivo, po, route oral GAVAGE, vehicle .5 % CMC; for ABSOLUTE BASOPHIL / ABSOLUTE EOSINOPHIL / ABSOLUTE LYMPHOCYTE / ABSOLUTE MONOCYTE / ABSOLUTE SEGMENTED NEUTROPHIL / BASOPHIL / EOSINOPHIL / ERYTHROCYTE COUNT / HEMATOCRIT / HEMOGLOBIN / LEUKOCYTE COUNT / LYMPHOCYTE / MEAN CORPUSCULAR HEMOGLOBIN / MEAN CORPUSCULAR HEMOGLOBIN CONCENTRATION / MEAN CORPUSCULAR VOLUME / MONOCYTE / NEUTROPHIL / NUCLEATED RED BLOOD CELLS / PLATELET COUNT: tissue Blood; for ALANINE AMINOTRANSFERASE / ALBUMIN / ALKALINE PHOSPHATASE / ASPARTATE AMINOTRANSFERASE / BLOOD UREA NITROGEN / CARBON DIOXIDE / CHLORIDE / CHOLESTEROL / CREATINE PHOSPHOKINASE / CREATININE / GLUCOSE / LACTATE DEHYDROGENASE / LIPASE / PHOSPHORUS / POTASSIUM / SODIUM / TOTAL BILIRUBIN / TOTAL PROTEIN / URIC ACID: tissue Plasma
[1] = 0 mg/kg, 72 h, dose level Control, time 3 day
[2] = 0 mg/kg, 120 h, dose level Control, time 5 day
[3] = 88 mg/kg, 72 h, dose level Low, time 3 day

CC(C)[C@H](N)C(=O)OCCOCn1cnc2c(=O)[nH]c(N)nc21 [VALACYCLOVIR]
ABSOLUTE BASOPHIL [1]: 0 CELLS/uL
ABSOLUTE EOSINOPHIL [1]: 171.33 CELLS/uL
ABSOLUTE LYMPHOCYTE [1]: 13776.5 CELLS/uL
ABSOLUTE MONOCYTE [1]: 180.83 CELLS/uL
ABSOLUTE SEGMENTED NEUTROPHIL [1]: 1121.33 CELLS/uL
BASOPHIL [1]: 0%
EOSINOPHIL [1]: 1%
ERYTHROCYTE COUNT [1]: 5.56 x10E6/uL
HEMATOCRIT [1]: 34.75%
HEMOGLOBIN [1]: 13.68 G/DL
LEUKOCYTE COUNT [1]: 15.25 x10E3/uL
LYMPHOCYTE [1]: 90.17%
MEAN CORPUSCULAR HEMOGLOBIN [1]: 24.6 pg
MEAN CORPUSCULAR HEMOGLOBIN CONCENTRATION [1]: 39.4 G/DL
MEAN CORPUSCULAR VOLUME [1]: 62.48 fL
MONOCYTE [1]: 1.17%
NEUTROPHIL [1]: 7.67%
NUCLEATED RED BLOOD CELLS [1]: 0 /100WBC
PLATELET COUNT [1]: 1342 x10E3/uL
ALANINE AMINOTRANSFERASE [1]: 49.67 u/L
ALBUMIN [1]: 4.15 G/DL
ALKALINE PHOSPHATASE [1]: 346.83 u/L
ASPARTATE AMINOTRANSFERASE [1]: 108.17 u/L
BLOOD UREA NITROGEN [1]: 17.33 mg/dL
CARBON DIOXIDE [1]: 25 mmol/L
CHLORIDE [1]: 100.83 MEQ/L
CHOLESTEROL [1]: 66.83 mg/dL
CREATINE PHOSPHOKINASE [1]: 788 u/L
CREATININE [1]: 0.18 mg/dL
GLUCOSE [1]: 151.67 mg/dL
LACTATE DEHYDROGENASE [1]: 982.5 u/L
LIPASE [1]: 10.33 u/L
PHOSPHORUS [1]: 11.23 mg/dL
POTASSIUM [1]: 6.37 MEQ/L
SODIUM [1]: 141.02 MEQ/L
TOTAL BILIRUBIN [1]: 0.18 mg/dL
TOTAL PROTEIN [1]: 5.9 G/DL
URIC ACID [1]: 1.8 mg/dL
ABSOLUTE BASOPHIL [2]: 0 CELLS/uL
ABSOLUTE EOSINOPHIL [2]: 69 CELLS/uL
ABSOLUTE LYMPHOCYTE [2]: 13632.83 CELLS/uL
ABSOLUTE MONOCYTE [2]: 139.83 CELLS/uL
ABSOLUTE SEGMENTED NEUTROPHIL [2]: 1225 CELLS/uL
BASOPHIL [2]: 0%
EOSINOPHIL [2]: 0.33%
ERYTHROCYTE COUNT [2]: 5.52 x10E6/uL
HEMATOCRIT [2]: 33.98%
HEMOGLOBIN [2]: 13.22 G/DL
LEUKOCYTE COUNT [2]: 15.07 x10E3/uL
LYMPHOCYTE [2]: 90.83%
MEAN CORPUSCULAR HEMOGLOBIN [2]: 23.95 pg
MEAN CORPUSCULAR HEMOGLOBIN CONCENTRATION [2]: 38.9 G/DL
MEAN CORPUSCULAR VOLUME [2]: 61.53 fL
MONOCYTE [2]: 0.83%
NEUTROPHIL [2]: 8%
NUCLEATED RED BLOOD CELLS [2]: 0 /100WBC
PLATELET COUNT [2]: 1196 x10E3/uL
ALANINE AMINOTRANSFERASE [2]: 49.17 u/L
ALBUMIN [2]: 4.2 G/DL
ALKALINE PHOSPHATASE [2]: 352.33 u/L
ASPARTATE AMINOTRANSFERASE [2]: 89.67 u/L
BLOOD UREA NITROGEN [2]: 18 mg/dL
CARBON DIOXIDE [2]: 27.67 mmol/L
CHLORIDE [2]: 101 MEQ/L
CHOLESTEROL [2]: 72.83 mg/dL
CREATINE PHOSPHOKINASE [2]: 417.5 u/L
CREATININE [2]: 0.18 mg/dL
GLUCOSE [2]: 150.5 mg/dL
LACTATE DEHYDROGENASE [2]: 517.33 u/L
LIPASE [2]: 9 u/L
PHOSPHORUS [2]: 11.87 mg/dL
POTASSIUM [2]: 6.57 MEQ/L
SODIUM [2]: 143.62 MEQ/L
TOTAL BILIRUBIN [2]: 0.2 mg/dL
TOTAL PROTEIN [2]: 6.08 G/DL
URIC ACID [2]: 1.45 mg/dL
ABSOLUTE BASOPHIL [3]: 0 CELLS/uL
ABSOLUTE EOSINOPHIL [3]: 194 CELLS/uL
ABSOLUTE LYMPHOCYTE [3]: 11636 CELLS/uL
ABSOLUTE MONOCYTE [3]: 141 CELLS/uL
ABSOLUTE SEGMENTED NEUTROPHIL [3]: 1129 CELLS/uL
BASOPHIL [3]: 0%
EOSINOPHIL [3]: 1.33%
ERYTHROCYTE COUNT [3]: 5.5 x10E6/uL
HEMATOCRIT [3]: 34.9%
HEMOGLOBIN [3]: 13.63 G/DL
LEUKOCYTE COUNT [3]: 13.1 x10E3/uL
LYMPHOCYTE [3]: 89.33%
MEAN CORPUSCULAR HEMOGLOBIN [3]: 24.77 pg
MEAN CORPUSCULAR HEMOGLOBIN CONCENTRATION [3]: 39.07 G/DL
MEAN CORPUSCULAR VOLUME [3]: 63.5 fL
MONOCYTE [3]: 1%
NEUTROPHIL [3]: 8.33%
NUCLEATED RED BLOOD CELLS [3]: 0 /100WBC
PLATELET COUNT [3]: 1139.67 x10E3/uL

— ChEMBL document CHEMBL3885881, “DrugMatrix”
